One test relates to acyl-CoA synthetases. Briefly: In vitro activity assay of Schizochytrium FAS-KO cell free homogenate with Triacsin C (HIP extraction, normal phase TLC). Particulars: Triacsin C 0, 25, 100 or 200 uM, 10 minutes, then ATP and Mg+2, additional 20 minutes; effect at higher concentrations. It counts as biochemical. On the procedure:
An example of a protocol for preparation of cell free homogenates (CFH) from the cell wall deficient strains of Schizochytrium is as follows. Cells were grown in A50-3 medium and then diluted into M2B medium. The media used for growing the KO strains were supplemented with the appropriate fatty acid. Cells were grown to an OD600 nm of >˜2.5 and <˜5 in the M2B media. Cells in 50 mL of culture medium were collected by centrifugation (table top centrifuge—˜1200 rpm×4 minutes) in 50 mL plastic tubes. The supernatant was decanted and the cells resuspended 5 mL Buffer A (100 mM Phosphate pH 7.2, 10% (w/v) glycerol, 1 mM EDTA and 2 mM DTT) and centrifuged as before. The supernatant was discarded and the cells resuspended in ice cold 5 mL Buffer A. The suspension was sonicated (Ultrasonic Processor Model GE130 with microtip, Pulser at 2 seconds, ˜1 Watt power setting) with tube on ice for 1.5 minutes. The sample was checked by microscopy to ensure that all of the cells were broken. The CFH was aliquoted in 200 uL portions into 0.5 mL PCR tubes with caps and frozen by dropping into liquid N2. Samples were stored at −74° C. until needed.
An example of a protocol for in vitro activity assays of both FAS and PUFA synthase activities is as follows. […]

A further test concerns yeast. Briefly: Fatty acid profile (GC of FAMEs) of yeast strains grown without or with cerulenin (FAS inhibition). In kind it is cell-based, Saccharomyces cerevisiae. An excerpt:
The present inventors tested the effects of cerulenin on fatty acid profiles of the strains of yeast described in Example 8 as a model of the concept of reduction of FAS activity. The yeast described in Example 9, which also contained an acyl CoA-synthetase, were additionally tested in this system, to determine whether the effects of the two strategies would additively or synergistically increase PUFA production.
Initial experiments indicated the maximum effect (i.e., as an increase in PUFAs as a percentage of the total fatty acid profile) was obtained at a concentration of 4 uM cerulenin. The cerulenin was added 4 hours after transfer to the galactose induction medium. Cells were harvested 19 hr after transfer to induction medium, freeze dried, FAMES prepared and analyzed by GC.
The yeast strains tested were: • Strain 5.5 contained the PUFA synthase genes (sOrfA, sOrfB, OrfC and Het I), as described in Example 8 above; and • Strain 5.6 contained the PUFA synthase gene set of Strain 5.5, plus the ScACoAS-1 (SEQ ID NO:82), as described in Example 9 above.
Referring to Table 2, “0 Cer” indicates cerulenin was not added, and “4 uM Cer” indicates the media was made to 4 uM cerulenin 4 hours after transfer to the induction medium). Each strain was evaluated for fatty acid production in the presence and absence of the cerulenin, to evaluate the effect of the inhibition of the FAS pathway on PUFA production. […] The values are given as a percentage of the total fatty acids detected. DHA and DPAn-6, which are the products of the Schizochytrium PUFA PKS system, were the only PUFAs present in the profiles. FIGS. 9 and 10 illustrate the amount of DHA (FIG. 9) or DHA and DPAn-6 (FIG. 10; white bars are DHA; black bars are DHA+DPAn-6) produced by the yeast, as a percentage of total FAME.

A further test has as its system Schizochytrium. Briefly: Knock out of the DAGAT gene in Schizochytrium, lipid profile. In kind it is cell-based. Particulars: inactivation of the DAGAT gene in Schizochytrium.

For `CCC/C=C/C/C=C/C=C/C=N/NN=O` [Triacsin C], the “loss of radiolabel from the FFA band” value in the test with acyl-CoA synthetases is reported as “blocked the loss of radiolabel from the FFA band”.
Turning to `C/C=C/C/C=C/CCC(=O)[C@H]1O[C@H]1C(N)=O` [cerulenin], the “DHA level, of total fatty acids” value in the test on yeast (cells expressing both the PUFA synthase and ScACoAS-1 genes grown in 4 uM cerulenin (4.1% without)) was determined as 8.2%. The DHA level with yeast (cells with just the PUFA synthase system grown in 4 uM cerulenin (1.2% without)) came to 3.7%. In the test on yeast (initial experiments), the “concentration giving the maximum effect (increase in PUFAs as a percentage of the total fatty acid profile)” value worked out at 4 µM.

B1: DAGAT: Schizochytrium diacylglycerol acyltransferase, SEQ ID NO:100/101 (protein, listed as Schizochytrium sp.)
chain: MERPQAQASPARSEARRRRGDRSKGFADEDGETSVNTPNGMQTPYSTSMGSVSSYSSSGDYAMSEAEGSEVDPADDRMGDSIGSKPSSSSVTGRRRLTQEERDYFLRLEKEWREEDAWADQPGSWYSMLAWMPVLIGLRVFNVLLSIAFWPVSFVARVFFGKKIHTVSFWDVPLSRRKQTAVVLLFVMLLPMVVVVYSWTLVLLLFPLTTFPTLCYMVWIIYVDKSPETGSRRPFLRYWKMWRHFANYFPLRLIRTTPLDSRRKYVFCYHPHGIISLGAFGNFATDSTGFSRKFPGIDLRVLTLALNFYCPLLREFLLYLGLCSAAKKSCNQILQRGPGSAIMLVVGGAAESLDSQPGTYRLTLGRKGFVRVALDNGADLVPVLAFGENDVFDTVYLPPNSWARNVQEFVRKKLGFATPIFSGRGIFQYNMGLMPHRRPIIVVVGKPIKMPKIPDELKGRALSTTAEGVALVDKYHEKYVKALRELWNLYKERWAVHRQGSLLIQK
For B1, in the test on Schizochytrium, the “reduction in TAG” value is around 90% and the “reduction in mg FAME/gm biomass” value was around 80%.

(Values after patent US20070245431A1, “POLYUNSATURATED FATTY ACID PRODUCTION IN HETEROLOGOUS ORGANISMS USING PUFA POLYKETIDE SYNTHASE SYSTEMS” (priority 2006, published 2007).)
